The source of these data is patent US6623766B1, “Process for insecticidal formulation effective in controlling malarial vector, mosquitoes” (Council of Scientific and Industrial Research, priority 2002, dated 2003).

For the data set, the system named is mosquito (Anopheles stephensi) larvae. The data set is described as follows: Standard WHO larvicidal test (WHO, 1981, slightly modified) on fourth-stage mosquito larvae, mortality after 24 hours. Format: in vivo. The protocol: Essential oil (0.1 ml) obtained from plant genus Foeniculum vulgare was first mixed with Tween-80 (0.1 ml) of 0.001% concentration and then the mixture was dissolved in water to make the solution of 0.01% concentration. This solution was tested against mosquito (Anopheles stephensi) larvae in the laboratory.
Standard WHO test (WHO, 1981) was employed with slight modification in the test procedure. A single fourth-stage larva was put into each of fifty vials containing 5 ml of the got test solution of each concentration. Single vial with one larva was used in one replication. Thus a total of 50 insects were used in fifty replications. Mortality data for mosquito larvae were recorded after 24 hours.
Essential oil (0.1 ml) obtained from plant genus Mentha spicata var. viridis was first mixed with Tween-80 (0.1 ml) of 0.001% concentration and then the mixture was dissolved in water to make the solution of 0.01% concentration. This solution was tested against mosquito (Anopheles stephensi) larvae in the laboratory.
Standard WHO test (WHO, 1981) was employed with slight modification in the test procedure. A single fourth-stage larva was put into each of fifty vials containing 5 ml of the test solution of each concentration. Single vial with one larva was used in one replication. Thus a total of 50 insects were used in fifty replications. Mortality data for mosquito larvae were recorded after 24 hours.
Essential oil (0.1 ml) obtained from plant genus Zingiber officinale was first mixed with Tween-80 (0.1 ml) of 0.001% concentration and then the mixture was dissolved in water to make the solution of 0.01% concentration. This solution was tested against mosquito (Anopheles stephensi) larvae in the laboratory.
Tween-80 purchased from Hi-Media, Mumbai, India, an emulsifying agent (0.1-ml) of 0.001% concentration was dissolved in water to make the solution of 0.01% concentration. This solution was tested against mosquito (Anopheles stephensi) larvae in the laboratory.
Essential oil (0.05 ml each) obtained from plant genus Foeniculum vulgare and Mentha spicata var. viridis were first mixed with Tween-80 (0.1 ml) of 0.001% concentration and then the mixture was dissolved in water to make the solution of 0.01% concentration. This solution was tested against mosquito (Anopheles stephensi) larvae in the laboratory.
Essential oil (0.05 ml each) obtained from plant genus Foeniculum vulgare and Zingiber officinale were first mixed with Tween-80 (0.1 ml) of 0.001% concentration and then the mixture was dissolved in water to make the solution of 0.01% concentration. This solution was tested against mosquito (Anopheles stephensi) larvae in the laboratory. […]

Turning to Tween-80 [Example 4], under “in vivo”, the “Mean % mortality after 24 hours” value worked out at 0% and the mortality was 0.0%.
With `C/C=C\c1cc(OC)c(OC)cc1OC` [Example 14, β-Asarone], the “Mean % mortality after 24 hours” value (0.0016% concentration (standard), Anopheles stephensi larvae, Table 1 summary) was 100%. For the setting “0.0016% concentration, fourth-stage larvae, recorded after 24 hours, laboratory conditions”, this compound came in with a mortality of 100.0%.

As a reminder, the mortality is the share of the test organisms that died.
